# Experimental data from ChEMBL document CHEMBL4699661, “Synthesis and Biological Characterization of Cyclic Disulfide-Containing Peptide Analogs of the Multifunctional Opioid/Neuropeptide FF Receptor Agonists That Produce Long-Lasting and Nontolerant Antinociception” (J Med Chem, 2020).
# The source made the active and inactive calls. The rule behind the calls is not given here. Non-standard residues stand in square brackets, D forms with d. Residues, ends and D or L forms follow the SMILES beside them.
# Columns and labels:
# Mus musculus [1] = experiment: Analgesic activity in icv dosed Kunming mouse by radiant heat tail flick test; type: functional
# Mus musculus [2] = experiment: Analgesic activity in sc dosed Kunming mouse pre-treated with 5 nmol, icv peripherally restricted opioid receptor antagonist naloxone methiodide by radiant heat tail flick test; type: functional, organism-based
# Mus musculus [3] = experiment: Analgesic activity in sc dosed Kunming mouse assessed as time duration during which antinociception lasted by radiant heat tail flick test; type: functional
# [4] = target: T1, Delta-type opioid receptor (Homo sapiens, UniProt P41143); experiment: Agonist activity at delta opioid receptor (unknown origin) expressed in HEK293-A cells assessed as inhibition of forskolin-stimulated cAMP accumulation incubated for 30 mins by competition PKA binding assay; type: functional, cell-based
# [5] = target: T2, Neuropeptide FF receptor 1 (Homo sapiens, UniProt Q9GZQ6); experiment: Agonist activity at NPFFR1 (unknown origin) expressed in HEK293-A cells assessed as inhibition of forskolin-stimulated cAMP accumulation incubated for 30 mins by competition PKA binding assay relative to control; type: functional, cell-based; settings: filed as agonist
# [6] = target: T1, Delta-type opioid receptor; experiment: Agonist activity at delta opioid receptor (unknown origin) expressed in HEK293-A cells assessed as inhibition of forskolin-stimulated cAMP accumulation incubated for 30 mins by competition PKA binding assay relative to control; type: functional, cell-based
# [7] = Half life in 100% mouse plasma at 0.01 mM by RP-HPLC analysis; type: ADME, cell-free
# Mu-type opioid receptor = Mu-type opioid receptor (Homo sapiens, UniProt P35372); experiment: Agonist activity at mu opioid receptor (unknown origin) expressed in HEK293-A cells assessed as inhibition of forskolin-stimulated cAMP accumulation incubated for 30 mins by competition PKA binding assay; type: functional, cell-based
# Mus musculus [8] = experiment: Analgesic activity in sc dosed Kunming mouse by radiant heat tail flick test; type: functional
# [9] = target: T2, Neuropeptide FF receptor 1; experiment: Agonist activity at NPFFR1 (unknown origin) expressed in HEK293-A cells assessed as inhibition of forskolin-stimulated cAMP accumulation incubated for 30 mins by competition PKA binding assay; type: functional, cell-based
# [10] = target: T3, Neuropeptide FF receptor 2 (Homo sapiens, UniProt Q9Y5X5); experiment: Agonist activity at NPFFR2 (unknown origin) expressed in HEK293-A cells assessed as inhibition of forskolin-stimulated cAMP accumulation incubated for 30 mins by competition PKA binding assay; type: functional, cell-based
# Mus musculus [11] = experiment: Analgesic activity in icv dosed Kunming mouse assessed as time duration during which supraspinal antinociception lasted by radiant heat tail flick test; type: functional
# [12] = target: T3, Neuropeptide FF receptor 2; experiment: Agonist activity at NPFFR2 (unknown origin) expressed in HEK293-A cells assessed as inhibition of forskolin-stimulated cAMP accumulation incubated for 30 mins by competition PKA binding assay relative to control; type: functional, cell-based; settings: filed as agonist
# Mus musculus [13] = experiment: Analgesic activity in sc dosed Kunming mouse dosed once daily for 8 consecutive days by radiant heat tail flick test; type: functional, organism-based; settings: time 8.0 day
# Mus musculus [14] = experiment: Analgesic activity in sc dosed Kunming mouse pre-treated with 1 mg/kg, sc opioid receptor antagonist naloxone by radiant heat tail flick test; type: functional, organism-based
# Mus musculus [15] = experiment: Analgesic activity in sc dosed Kunming mouse pre-treated with 1 mg/kg, sc peripherally restricted opioid receptor antagonist naloxone methiodide by radiant heat tail flick test; type: functional, organism-based
# [16] = target: Kappa-type opioid receptor (Homo sapiens, UniProt P41145); experiment: Agonist activity at kappa opioid receptor (unknown origin) expressed in HEK293-A cells assessed as inhibition of forskolin-stimulated cAMP accumulation incubated for 30 mins by competition PKA binding assay; type: functional, cell-based
# Mus musculus [17] = experiment: Analgesic activity in Kunming mouse assessed as increase in antinociceptive effect at 0.03 pmol, icv pre-treated with 10 nmol, icv NPFF receptor antagonist RF9 by radiant heat tail flick test; type: functional, organism-based
# [18] = Half life in 15% mouse brain at 0.01 mM by RP-HPLC analysis; type: ADME, tissue-based
# Mus musculus [19] = experiment: Analgesic activity in icv dosed Kunming mouse dosed once daily for 8 consecutive days by radiant heat tail flick test; type: functional, organism-based; settings: time 8.0 day
Compound,ED50 (Mus musculus [1]) [pmol],Activity (Mus musculus [2]),Time (Mus musculus [3]) [h],EC50 [4] [nM],Emax [5] [%],Emax ([6]; filed as agonist) [%],half-life at 10 µM [7] [min],EC50 (Mu-type opioid receptor) [nM],ED50 (Mus musculus [8]) [µmol/kg],EC50 [9] [nM],EC50 [10] [nM],Time (Mus musculus [11]) [h],Emax [12] [%],Activity (Mus musculus [13]),Activity (Mus musculus [14]),Activity (Mus musculus [15]),EC50 ([16]; read-out: EC50) [nM],Activity (Mus musculus [17]),half-life at 10 µM [18] [min],Activity (Mus musculus [19]),also measured
N=C(N)NCCC[C@H](NC(=O)[C@H](CCC(N)=O)NC(=O)[C@@H]1CCCN1C(=O)[C@@H](CS)NC(=O)[C@H](Cc1ccccc1)NC(=O)CNC(=O)[C@H](CS)NC(=O)[C@@H](N)Cc1ccc(O)cc1)C(=O)N[C@@H](Cc1ccccc1)C(N)=O,6.42,Active,3,199,81.8,50.4,31.4,178,0.1,216,697,3,55.1,Active,inactive,inactive,75.1,Active,–,–,EC50 ([16]; read-out: pEC50 (converted)): 74.1 nM
N=C(N)NCCC[C@H](NC(=O)[C@H](CCC(N)=O)NC(=O)[C@@H]1CCCN1C(=O)[C@H](CS)NC(=O)[C@H](Cc1ccccc1)NC(=O)CNC(=O)[C@H](CS)NC(=O)[C@@H](N)Cc1ccc(O)cc1)C(=O)N[C@@H](Cc1ccccc1)C(N)=O,150,Active,1.5,218,79.7,–,29.6,1550,0.24,24.9,752,–,62.9,Active,inactive,inactive,184,Active,–,–,Emax [6]: 35.8%
C[C@@H](NC(=O)[C@@H](N)Cc1ccc(O)cc1)C(=O)NCC(=O)N[C@@H](Cc1ccccc1)C(=O)N[C@@H](CCC(N)=O)C(=O)N1CCC[C@H]1C(=O)N[C@@H](CCC(N)=O)C(=O)N[C@@H](CCCNC(=N)N)C(=O)N[C@@H](Cc1ccccc1)C(N)=O (H-Y[dA]GFQPQRF-NH2),390,–,–,–,–,–,–,–,1.37,–,–,–,–,Active,–,–,–,Active,–,–,–
N=C(N)NCCC[C@H](NC(=O)[C@H](CCC(N)=O)NC(=O)[C@@H]1CCCN1C(=O)[C@H]1CSSC[C@H](NC(=O)[C@@H](N)Cc2ccc(O)cc2)C(=O)NCC(=O)N[C@@H](Cc2ccccc2)C(=O)N1)C(=O)N[C@@H](Cc1ccccc1)C(N)=O,0.21,–,4,490,82.8,60.3,17,3830,0.003,354,168,3,61.6,Active,–,–,743,Active,229,Active,–
N=C(N)NCCC[C@H](NC(=O)[C@H](CCC(N)=O)NC(=O)[C@@H]1CCCN1C(=O)[C@@H](CS)NC(=O)[C@H](Cc1ccccc1)NC(=O)CNC(=O)[C@@H](CS)NC(=O)[C@@H](N)Cc1ccc(O)cc1)C(=O)N[C@@H](Cc1ccccc1)C(N)=O,1.13,–,3,219,85.7,58.3,30.9,171,0.06,788,719,3,58.4,Active,–,–,2300,Active,–,–,–
N=C(N)NCCC[C@H](NC(=O)[C@H](CCC(N)=O)NC(=O)[C@@H]1CCCN1C(=O)[C@@H]1CSSC[C@H](NC(=O)[C@@H](N)Cc2ccc(O)cc2)C(=O)NCC(=O)N[C@@H](Cc2ccccc2)C(=O)N1)C(=O)N[C@@H](Cc1ccccc1)C(N)=O,182,–,1.5,162,80.2,63.6,28.9,788,0.18,32.5,120,–,79.6,Active,–,–,307,Active,58,Active,–
